US11312925B2, “Pyrithione preservative system and C1-C12 ethoxylated alcohol in hard surface cleaning products” (ECOLAB USA INC., priority 2015, dated 2022)

What was measured:
[1] = system: Yeast and mold cocktail (Canidia albicans ATCC 10231, Saccharomyces cerevisiae ATCC 834, Aspergillus niger ATCC 16404); assay: Preservative test over 28 days in 7 and 18.5 grain water, yeast and mold counts (Example 5); format: cell-based; conditions: 140 ppm with 2000 ppm monosodium citrate versus 200 ppm bis (3-aminopropyl) dodecylamine in hard water
Method: (§1) For USP bacteria there must be no less than 2.0 log reduction from the initial inoculated count at 14 days, and no increase from the 14 days' count at 28 days. A result of “no increase” is defined as not more than 0.5 log higher than previous value. For additional standards examined the preservation capability of a composition is evaluated over a predetermined time (as identified in the Example) and the inhibition or reduction of microbial growth is assessed, without the requirement for complete elimination of the entire microbial inoculum.
The survival of both bacterial cocktail and fungal cocktails (as described in prior Example) were monitored over 28 days.
The yeast and mold inoculum was made up of equal parts of the organisms listed (incubated in sabourand agar at 26° C. for 3 days):

[2] = system: Bacterial cocktail (Staphylococcus aureus ATCC 6538, Escherichia coli ATCC 11229, Enterobacter aerogenes ATCC 13048, Burkholderia cepacia ATCC 25416 …); assay: Preservative test over 28 days in 7 and 18.5 grain water, bacterial counts (Example 5); format: cell-based; conditions: 140 ppm with 2000 ppm monosodium citrate versus 300 ppm with no added acidity
Method: as §1
Formulations of pyrithione preservatives were evaluated in existing solid rinse aid formulations for USP and commercial standards, modified to incorporate field isolate from a sump solution. The survival of both bacterial cocktail and fungal cocktails (as described in prior Example) were monitored over 28 days.
The bacteria inoculum was made up of equal parts of the organisms listed (incubated in tryptone glucose extract agar at 32° C. for 3 days):

[3] = system: yeast and mold inoculum cocktail (Canidia albicans ATCC 10231, Saccharomyces cerevisiae ATCC 834, Aspergillus niger ATCC 16404); conditions: over 3 weeks in sump solution; compared with the other evaluated preservatives; FIG. 1
Method: In order to identify preservative systems for replacing Kathon CG-ICP (isothiazolinone blend) from solid rinse aid formulations, various potential preservatives were evaluated.
For performance reasons, the preservatives were tested with the 4500 MW polyacrylic acid polymer and 10% level of monosodium citrate or fumaric acid.
The test temperature was ambient (20° C.-26° C.) and exposure times were 0, 7, 14, 28 and 35 days.
The preservatives were formulated at their upper concentration levels before triggering the use of personal protective equipment and measured fungi recovered and pH.

[4] = Compatibility in solution with 4500 MW polyacrylic acid polymer under acidic conditions; format: physicochemical

Row | Structure (SMILES) | preservation performance, comparison [1] | inhibition of microorganisms (especially bacteria), comparison [2] | impact at reducing fungi (mean log fungi reduction) [3] | behaviour in solution with the 4500 MW polyacrylic acid polymer [4]
1 | On1ccccc1=S.[Na] [sodium pyrithione, 1-hydroxy-2(1H)-pyridinethione, sodium salt] | outperformed | much more effective at inhibiting microorganisms | greatest impact at reducing fungi | –
2 | CCCCCCCCCCCCN(CCCN)CCCN [bis (3-aminopropyl) dodecylamine, Bis (3-aminopropyl) dodecylamine] | – | – | – | precipitate out of solution
